This is an account of results in ChEMBL document CHEMBL4808247 (Bioorg Med Chem, 2021).

Converted amounts (≈) assume the structure as drawn.

For orientation: MIC means the smallest concentration in the dilution series that meets the test's criterion for growth inhibition. The MIC50 is the lowest concentration that inhibits either 50% of growth or 50% of the strains tested, depending on the study. As a reminder, the MIC90 is the lowest concentration that inhibits either 90% of growth or 90% of the strains tested, depending on the study.

The subject of assay [1] is Enterobacter cloacae. The assay is described as follows: Antibacterial activity against Enterobacter cloacae IR32 producing class B beta-lactamase, NDM1 assessed as reduction in microbial growth incubated for 16 to 20 hrs by broth microdilution method. The format is functional. The note with it: time 16-20 hrs.
Assay [2] can be described thus: Ratio of MIC for antibacterial activity against Escherichia coli BL21(DE3) transfected with pET9a vector harboring class C beta lactamase AmpC to MIC for antibacterial activity against Escherichia coli BL21(DE3). The format is functional.
Assay [3] deals with Escherichia coli. The assay is described as follows: Antibacterial activity against Escherichia coli BL21(DE3) transfected with pET9a vector harboring class B beta lactamase, NDM-1 incubated for 16 to 20 hrs by broth microdilution method. The format is functional. The note with it: time 16-20 hrs.
For assay [4], the system named is Enterobacter cloacae. Nature of the assay: Antibacterial activity against Enterobacter cloacae SR36276 producing class C beta-lactamase, AmpC assessed as reduction in microbial growth incubated for 16 to 20 hrs by broth microdilution method. The format is functional. The note with it: time 16-20 hrs. Background: Broth dilution looks for growth in wells or tubes with falling amounts of substance.

Assay [5] in a line: Ratio of MIC for antibacterial activity against Escherichia coli BL21(DE3) transfected with pET9a vector harboring class D beta lactamase, OXA-48 to MIC for antibacterial activity against Escherichia coli BL21(DE3). The format is functional.
For assay [6], the system named is Escherichia coli. The assay is described as follows: Antibacterial activity against Escherichia coli BL21(DE3) transfected with pET9a empty vector incubated for 16 to 20 hrs by broth microdilution method. The following applies: time 16-20 hrs. The format is functional.
Assay [7] concerns Escherichia coli. Nature of the assay: Antibacterial activity against Escherichia coli BL21(DE3) transfected with pET9a vector harboring class A beta lactamase, CTX-M-15 incubated for 16 to 20 hrs by broth microdilution method. The format is functional. The note with it: time 16-20 hrs.
In assay [8] the test system is Escherichia coli. The assay is described as follows: Antibacterial activity against Escherichia coli NIHJ JC-2 assessed as reduction in microbial growth incubated for 16 to 20 hrs by broth microdilution method. The format is functional. The note with it: time 16-20 hrs.
In assay [9] the test system is Escherichia coli. The assay is described as follows: Antibacterial activity against Escherichia coli BL21(DE3) transfected with pET9a vector harboring class C beta lactamase, AmpC incubated for 16 to 20 hrs by broth microdilution method. The format is functional. The following applies: time 16-20 hrs.
Assay [10] deals with Escherichia coli. The assay is described as follows: Antibacterial activity against Escherichia coli BL21(DE3) transfected with pET9a vector harboring class D beta lactamase, OXA-48 incubated for 16 to 20 hrs by broth microdilution method. The format is functional. The following applies: time 16-20 hrs.
Assay [11] has as its system Escherichia coli. The assay is described as follows: Antibacterial activity against Escherichia coli SR34100 producing class A beta-lactamase, CTX-M-15 assessed as reduction in microbial growth incubated for 16 to 20 hrs by broth microdilution method. The format is functional. The following applies: time 16-20 hrs.
A short description of assay [12]: Ratio of MIC for antibacterial activity against Escherichia coli BL21(DE3) transfected with pET9a vector harboring class A beta lactamase, CTX-M-15 to MIC for antibacterial activity against Escherichia coli BL21(DE3). The format is functional.
In assay [13] the test system is Klebsiella pneumoniae. Nature of the assay: Antibacterial activity against Klebsiella pneumoniae JMI:211 producing class A beta-lactamase, KPC-2 assessed as reduction in microbial growth incubated for 16 to 20 hrs by broth microdilution method. The following applies: time 16-20 hrs. The format is functional.
Assay [14] is described as follows: Ratio of MIC for antibacterial activity against Escherichia coli BL21(DE3) transfected with pET9a vector harboring class B beta lactamase NDM-1 to MIC for antibacterial activity against Escherichia coli BL21(DE3). The format is functional.
Assay [15] concerns Klebsiella pneumoniae. The assay is described as follows: Antibacterial activity against Klebsiella pneumoniae PLE producing class D beta-lactamase, OXA-48 assessed as reduction in microbial growth incubated for 16 to 20 hrs by broth microdilution method. The format is functional. The note with it: time 16-20 hrs.
In assay [16] the test system is Enterobacterales. The assay is described as follows: Antimicrobial activity against Enterobacterales producing OXA-48 assessed as reduction in microbial growth measured after 16 to 20 hrs in presence of avibactam by broth microdilution method. The following applies: time 16-20 hrs. The format is functional.
Assay [17] relates to Enterobacter cloacae. Nature of the assay: Antibacterial activity against Enterobacter cloacae IR32 producing class B beta-lactamase, NDM-1 assessed as reduction in microbial growth incubated for 16 to 20 hrs in presence of avibactam by broth microdilution method. The format is functional. The note with it: time 16-20 hrs.
For assay [18], the system named is Klebsiella pneumoniae. Nature of the assay: Antibacterial activity against Klebsiella pneumonia ATCC 13883 infected in cyclophosphamide-induced neutropenic Jcl:ICR mouse model assessed as log10 reduction in CFU at 10 mg/kg, sc administered at 2, 5 and 8 hrs after infection and measured at 10 hrs after infection. The format is functional.
The subject of assay [19] is Klebsiella pneumoniae. The assay is described as follows: Antibacterial activity against Klebsiella pneumoniae JMI:211 producing class A beta lactamase, KPC-2 assessed as reduction in microbial, growth incubated for 16 to 20 hrs in presence of avibactam by broth microdilution method. The format is functional. The note with it: time 16-20 hrs.
For assay [20], the system named is Enterobacterales. Nature of the assay: Antimicrobial activity against Enterobacterales producing NDM assessed as reduction in microbial growth measured after 16 to 20 hrs in presence of avibactam by broth microdilution method. The format is functional. The note with it: time 16-20 hrs.
In assay [21] the test system is Klebsiella pneumoniae. Nature of the assay: Antibacterial activity against Klebsiella pneumonia ATCC 13883 infected in cyclophosphamide-induced neutropenic Jcl:ICR mouse model assessed as log10 reduction in CFU at 3 mg/kg, sc administered at 2, 5 and 8 hrs after infection and measured at 10 hrs after infection. The format is functional.
For assay [22], the system named is Escherichia coli. The assay is described as follows: Antibacterial activity against Escherichia coli NIHJ JC-2 strain assessed as reduction in microbial growth incubated for 16 to 20 hrs in presence of avibactam by broth microdilution method. The format is functional. The note with it: time 16-20 hrs.
Assay [23] relates to Enterobacter cloacae. The assay is described as follows: Antibacterial activity against Enterobacter cloacae SR36276 producing class C beta lactamase, AmpC assessed as reduction in microbial growth incubated for 16 to 20 hrs in presence of avibactam by broth microdilution method. The format is functional. The note with it: time 16-20 hrs.
Assay [24] concerns Enterobacterales. The assay is described as follows: Antimicrobial activity against Enterobacterales producing KPC assessed as reduction in microbial growth measured after 16 to 20 hrs in presence of avibactam by broth microdilution method. The format is functional. The note with it: time 16-20 hrs.
Assay [25] has as its system Enterobacterales. The assay is described as follows: Antimicrobial activity against Enterobacterales producing VIM assessed as reduction in microbial growth measured after 16 to 20 hrs in presence of avibactam by broth microdilution method. The format is functional. The note with it: time 16-20 hrs.
Assay [26] has as its system Klebsiella pneumoniae. Nature of the assay: Antibacterial activity against Klebsiella pneumoniae ATCC13883 assessed as reduction in microbial growth incubated for 16 to 20 hrs by broth microdilution method. The format is functional. The following applies: time 16-20 hrs.
For assay [27], the system named is Enterobacter cloacae. The assay is described as follows: Antibacterial activity against Enterobacter cloacae 1,261,347 producing class A beta lactamase, PER-2 assessed as reduction in microbial growth incubated for 16 to 20 hrs in presence of avibactam by broth microdilution method. The format is functional. The note with it: time 16-20 hrs.
Assay [28] relates to Klebsiella pneumoniae. Nature of the assay: Antibacterial activity against Klebsiella pneumoniae PLE producing class D beta lactamase, OXA-48 assessed as reduction in microbial growth incubated for 16 to 20 hrs in presence of avibactam by broth microdilution method. The format is functional. The following applies: time 16-20 hrs.
In assay [29] the test system is Escherichia coli. The assay is described as follows: Antibacterial activity against Escherichia coli SR34100 producing class A beta lactamase, CTX-M-15 assessed as reduction in microbial growth incubated for 16 to 20 hrs in presence of avibactam by broth microdilution method.
Assay [30] relates to Klebsiella pneumoniae. Nature of the assay: Antibacterial activity against Klebsiella pneumoniae PLE producing class D beta-lactamase, OXA-48 assessed as reduction in microbial growth incubated for 16 to 20 hrs in presence of vaborbactam by broth microdilution method. The format is functional. The following applies: time 16-20 hrs.
In assay [31] the test system is Escherichia coli. The assay is described as follows: Antibacterial activity against Escherichia coli NIHJ JC-2 strain assessed as reduction in microbial growth incubated for 16 to 20 hrs in presence of vaborbactam by broth microdilution method. The format is functional. The following applies: time 16-20 hrs.
Assay [32] relates to Klebsiella pneumoniae. The assay is described as follows: Antibacterial activity against Klebsiella pneumoniae JMI:211 producing class A beta-lactamase, KPC-2 assessed as reduction in microbial growth incubated for 16 to 20 hrs in presence of vaborbactam by broth microdilution method. The format is functional. The note with it: time 16-20 hrs.
The subject of assay [33] is Enterobacter cloacae. The assay is described as follows: Antibacterial activity against Enterobacter cloacae SR36276 producing class C beta-lactamase, AmpC assessed as reduction in microbial growth incubated for 16 to 20 hrs in presence of vaborbactam by broth microdilution method. The format is functional. The following applies: time 16-20 hrs.
For assay [34], the system named is Enterobacter cloacae. Nature of the assay: Antibacterial activity against Enterobacter cloacae IR32 producing class B beta-lactamase, NDM-1 assessed as reduction in microbial growth incubated for 16 to 20 hrs in presence of vaborbactam by broth microdilution method. The following applies: time 16-20 hrs. The format is functional.
Assay [35] relates to Escherichia coli. The assay is described as follows: Antibacterial activity against Escherichia coli SR34100 producing class A beta lactamase, CTX-M-15 assessed as reduction in microbial growth incubated for 16 to 20 hrs in presence of vaborbactam by broth microdilution method. The format is functional. The note with it: time 16-20 hrs.

With `CC(C)(O/N=C(\C(=O)N[C@@H]1C(=O)N2[C@@H]1SC[C@@H]1CC(=O)O[C@@]12C(=O)O)c1csc(N)n1)C(=O)O` (stereo in doubt), the MIC in the assay with Enterobacter cloacae [1] stood at 0.5 µg/mL; against Escherichia coli [3] it was 0.5 µg/mL (≈ 0.974 µM); in the assay with Enterobacter cloacae [4], 16 µg/mL; in the assay on Escherichia coli [6], 0.5 µg/mL (≈ 0.974 µM); in the assay with Escherichia coli [7], 0.5 µg/mL (≈ 0.974 µM); in the assay with Escherichia coli [8], 0.5 µg/mL. Besides, the MIC was determined as 1 µg/mL (≈ 1.95 µM) with Escherichia coli [9]; 0.5 µg/mL (≈ 0.974 µM) in the assay on Escherichia coli [10]; 1 µg/mL in the assay with Escherichia coli [11]; 1 µg/mL in the assay on Klebsiella pneumoniae [13]; 2 µg/mL with Klebsiella pneumoniae [15]. Also, the Ratio in [2], in assay [5], in assay [12] and in assay [14] was less than 2 throughout.
Take `CC(C)(O/N=C(\C(=O)N[C@@H]1C(=O)N2C(C(=O)[O-])=C(C[n+]3ccccc3)CS[C@H]12)c1csc(N)n1)C(=O)O` [CEFTAZIDIME]: the MIC is more than 32 µg/mL in the assay with Enterobacter cloacae [1]; more than 16 µg/mL in the assay on Escherichia coli [3]; more than 32 µg/mL with Enterobacter cloacae [4]; more than 32 µg/mL with Enterobacter cloacae [17]; 1 µg/mL with Klebsiella pneumoniae [19]; 0.25 µg/mL in the assay with Escherichia coli [22]. Moreover, the MIC stood at 0.063 µg/mL (≈ 0.115 µM) in the assay on Escherichia coli [6]; 1 µg/mL in the assay with Enterobacter cloacae [23]; 0.25 µg/mL (≈ 0.457 µM) in the assay with Escherichia coli [7]; 0.25 µg/mL with Escherichia coli [8]; 0.25 µg/mL (≈ 0.457 µM) with Escherichia coli [9]; 0.25 µg/mL with Klebsiella pneumoniae [26]. Moreover, the MIC in the assay on Escherichia coli [10] is 0.063 µg/mL (≈ 0.115 µM); with Enterobacter cloacae [27] it was more than 32 µg/mL; in the assay on Klebsiella pneumoniae [28], 0.25 µg/mL; in the assay with Escherichia coli [11] it was more than 32 µg/mL; in the assay with Escherichia coli [29], 1 µg/mL; with Klebsiella pneumoniae [15], 1 µg/mL. Besides, the MIC50 in the assay with Enterobacterales [16] was 0.125 µg/mL; with Enterobacterales [20], more than 64 µg/mL; in the assay on Enterobacterales [24], 4 µg/mL; in the assay on Enterobacterales [25], more than 64 µg/mL. Further, the MIC90 in the assay with Enterobacterales [16] is 4 µg/mL; in the assay with Enterobacterales [20], more than 64 µg/mL; in the assay with Enterobacterales [24] it was more than 64 µg/mL; in the assay with Enterobacterales [25], more than 64 µg/mL. Besides, the Activity is 3.05 log10CFU with Klebsiella pneumoniae [18] and 2.67 log10CFU in the assay on Klebsiella pneumoniae [21].
Regarding `C[C@@H](O)[C@H]1C(=O)N2C(C(=O)O)=C(S[C@@H]3CN[C@H](C(=O)N(C)C)C3)[C@H](C)[C@H]12` [MEROPENEM], the MIC in the assay with Klebsiella pneumoniae [30] was 1 µg/mL; in the assay on Escherichia coli [31] it was less than 0.031 µg/mL; with Klebsiella pneumoniae [32], less than 0.031 µg/mL; with Enterobacter cloacae [33] it was less than 0.031 µg/mL; in the assay on Enterobacter cloacae [34], 16 µg/mL; in the assay on Escherichia coli [35], less than 0.031 µg/mL.
